Solubility data for one compound are collected here from patent EP0662819B1, “AN ANTIVIRALLY ACTIVE PHARMACEUTICAL OIL-IN-WATER EMULSION CONTAINING 9-[(2-HYDROXYETHOXY)METHYL]GUANINE (ACYCLOVIR) OR A SALT OR ESTER THEREOF” (A/S GEA Farmaceutisk Fabrik, priority 1992, dated 1994).

The data set is described as follows: Solubility of acyclovir in glycerol formal/water and glycerol formal/propylene glycol/water mixtures. The format is physicochemical. The following applies: room temperature. The method, then:
A surplus of acyclovir is added to glycerol formal/water mixtures and glycerol formal/propylene glycol/water mixtures at room temperature, and the mixtures are then stirred for 2 hours and filtered. Subsequent to adequate dilution with 0.1 N NaOH the solutions are spectrophotometrically measured at 260 nm against 0.1 N NaOH. A 0.01% solution of acyclovir in 0.1 N NaOH is used as standard.

Each structure is given as a SMILES string. In brackets after ≈: the same amount, converted by molar mass.

Regarding `Nc1nc2c(ncn2COCCO)c(=O)[nH]1` [acyclovir, 9-[(2-hydroxyethoxy)methyl]guanine], the solubility (usually the dissolved amount per volume that the medium holds) at 2 h came to 1170 µg/mL (≈ 5.2 mM) (0 percent by volume glycerol formal in water, stirred 2 hours); 1630 µg/mL (≈ 7.24 mM) (10% glycerol formal in water, organic solvent or mixture, 10 percent by volume glycerol formal in water, stirred 2 hours); 2640 µg/mL (≈ 11.7 mM) (25% glycerol formal in water, organic solvent or mixture, 25 percent by volume glycerol formal in water, stirred 2 hours); 4370 µg/mL (≈ 19.4 mM) (50% glycerol formal in water, organic solvent or mixture, 50 percent by volume glycerol formal in water, stirred 2 hours); 4670 µg/mL (≈ 20.7 mM) (60% glycerol formal in water, organic solvent or mixture, 60 percent by volume glycerol formal in water, stirred 2 hours); 4150 µg/mL (≈ 18.4 mM) (75% glycerol formal in water, organic solvent or mixture, 75 percent by volume glycerol formal in water, stirred 2 hours). Moreover, the solubility at 2 h is 2970 µg/mL (≈ 13.2 mM) (90% glycerol formal in water, organic solvent or mixture, 90 percent by volume glycerol formal in water, stirred 2 hours); 5730 µg/mL (≈ 25.4 mM) (glycerol formal/water 40/20, organic solvent or mixture, Glycerol formal/propylene glycol/water 40/0/20 g/g/ml); 3270 µg/mL (≈ 14.5 mM) (organic solvent or mixture, 100 percent by volume glycerol formal, stirred 2 hours); 4710 µg/mL (≈ 20.9 mM) (organic solvent or mixture, Glycerol formal/propylene glycol/water 11/29/20 g/g/ml); 4600 µg/mL (≈ 20.4 mM) (organic solvent or mixture, Glycerol formal/propylene glycol/water 20/20/20 g/g/ml); 5200 µg/mL (≈ 23.1 mM) (organic solvent or mixture, Glycerol formal/propylene glycol/water 30/10/20 g/g/ml). For the same compound, where the note is “propylene glycol/water 40/20, organic solvent or mixture, Glycerol formal/propylene glycol/water 0/40/20 g/g/ml”, the solubility at 2 h came to 3440 µg/mL (≈ 15.3 mM).
